A short description of series [1]: log P by HPLC on reversed-phase column (EEC directive 79/831 Annex V.A8). The class given is physicochemical. To be noted: for log p a): HPLC on reversed-phase column. As for the experimental part:
a) The determination of the [M+H]^+ by LC-MS in the acidic range was effected at pH 2.7, with acetonitrile (containing 0.1% formic acid) and water as eluents; linear gradient from 10% acetonitrile to 95% acetonitrile, instrument: Agilent 1100 LC system, Agilent MSD system, HTS PAL.
The log P values reported in the tables and preparation examples above were determined in accordance with EEC directive 79/831 Annex V.A8 by HPLC (High Performance Liquid Chromatography) using a reversed-phase column (C18). Temperature 43° C.

The test system of a further series is Myzus persicae. Description: Myzus persicae oral test. The format is in vivo. Conditions: application rate 20 ppm, oral uptake through parafilm, after 5 days; for pest or weed control at 20 ppm: Myzus persicae, 120 h, read-out: efficacy. The method, then: Myzus persicae—Oral Test Solvent: 100 parts by weight of acetone
To produce an appropriate active ingredient formulation, 1 part by weight of active ingredient is dissolved with the stated parts by weight of solvent and made up with water until the desired concentration is attained.
50 μl of the active ingredient formulation are transferred into microtitre plates and made up to a final volume of 200 μl with 150 μl of IPL41 insect medium (33%+15% sugar). Subsequently, the plates are sealed with parafilm, which a mixed population of green peach aphids (Myzus persicae) within a second microtitre plate is able to puncture and imbibe the solution through it.
After 5 days, the efficacy in % is determined. 100% means that all the aphids have been killed; 0% means that no aphids have been killed.

Setting [2] is: HPLC on reversed-phase column (footnote a).
Where [3] appears, read: reversed-phase C18 HPLC column, pH 2.7, HPLC on reversed-phase column (footnote a), read-out: log p.
The mark [4] stands for this setting: reversed-phase C18 HPLC column, HPLC-MS, reversed-phase C18, 43° C., calibration with alkan-2-ones, read-out: log P.

Where two headings read alike, the source gives them in different places.

For the compound `Cc1ccc[n+]2c(C(=O)NC3CC3)c([O-])n(C(C)c3ccc(Cl)nc3)c12` (racemic) [Example I-1-257], the “log p a)” value in series [1] came out at 1.52. Moreover, the efficacy with Myzus persicae was determined as 100%.
For `Cc1ccc[n+]2c(C(=O)NC3CC3)c([O-])n(C(C)c3ccc(Cl)nc3)c12` (racemic) [Example I-1-259] the same measures were 1.96 and 90%.
For `Cc1ccc[n+]2c(C(=O)Nc3c(F)cccc3F)c([O-])n(C(C)c3ccc(Cl)nc3)c12` (racemic) [Example I-1-275], the “log p a)” value in series [1] is 2.67. In the series with Myzus persicae, this compound registered an efficacy of 100%.
`O=C(CCl)c1c([O-])n(Cc2ccc(Cl)nc2)c2cccc[n+]12` [Example I-1-001]: the log p in series [1] (setting [2]) is 1.62. The efficacy in the series with Myzus persicae is given as 100%.
The compound `O=C(COc1cccnc1)c1c([O-])n(Cc2ccc(Cl)nc2)c2cccc[n+]12` [Example I-1-006] registered a log p in series [1] (setting [2]) of 0.93. For the same compound, in the series with Myzus persicae, the efficacy is reported as 100%.
For `O=C(Cn1ccc(Cl)n1)c1c([O-])n(Cc2cnc(Cl)s2)c2cccc[n+]12` [Example I-1-011] the same measures were 2.03 and 100%.
Turning to `O=C(COc1cccnc1)c1c([O-])n(Cc2cnc(Cl)s2)c2cccc[n+]12` [Example I-1-018], the log p in series [1] (setting [2]) was determined as 1. In the series on Myzus persicae, this compound returned an efficacy of 100%.
For `O=C(CSc1ccccc1)c1c([O-])n(Cc2cnc(Cl)s2)c2cccc[n+]12` [Example I-1-025] the same measures were 2.67 and 100%.
For `O=C(COc1ccc(F)cc1)c1c([O-])n(Cc2ccc(Cl)nc2)c2cccc[n+]12` [Example I-1-031] the same measures were 2.27 and 100%.
For `O=C(C[S+]([O-])Cc1ccccc1)c1c([O-])n(Cc2cnc(Cl)s2)c2cccc[n+]12` (centres unmarked) [Example I-1-035] the same measures were 1.72 and 100%.
As for `CC(C)[S+]([O-])CC(=O)c1c([O-])n(Cc2cnc(Cl)s2)c2cccc[n+]12` (centres unmarked) [Example I-1-038], in series [1] (setting [2]), the log p came out at 1.32. In the series with Myzus persicae, the efficacy is 100%.
For `C[S+]([O-])CC(=O)c1c([O-])n(Cc2cnc(Cl)s2)c2cccc[n+]12` (centres unmarked) [Example I-1-039] the same measures were 1.08 and 100%.
With `CCN(CC(=O)c1c([O-])n(Cc2cnc(Cl)s2)c2cccc[n+]12)C(C)=O` [Example I-1-040, 3-(N-Acetyl-N-ethylglycyl)-1-[(2-chloro-1,3-thiazol-5-yl)methyl]-1H-imidazo[1,2-a]pyridin-4-ium-2-olate], the chromatographic logP in series [1] (setting [3]) and in series [1] (setting [4]) was 1.49 in each case. In addition, the pest or weed control at 20 ppm with Myzus persicae worked out at 100%.
`CCS(=O)(=O)CC(=O)c1c([O-])n(Cc2cnc(Cl)s2)c2cccc[n+]12` [Example I-1-042, 1-[(2-chloro-1,3-thiazol-5-yl)methyl]-3-[(ethylsulphonyl)acetyl]-1H-imidazo[1,2-a]pyridin-4-ium-2-olate]: the chromatographic logP in series [1] (setting [3]) and in series [1] (setting [4]) was 1.38 in each case. Also, the pest or weed control at 20 ppm in the series on Myzus persicae is 100%.
Regarding `N#Cc1ccn(CC(=O)c2c([O-])n(Cc3cnc(Cl)s3)c3cccc[n+]23)n1` [Example I-1-047], the log p in series [1] (setting [2]) stood at 1.83. In the series with Myzus persicae, this compound displayed an efficacy of 100%.
For `O=C(Cn1cnc(C(F)(F)F)c1)c1c([O-])n(Cc2cnc(Cl)s2)c2cccc[n+]12` [Example I-1-051] the same measures were 2 and 100%.
For `CSc1ccn(CC(=O)c2c([O-])n(Cc3cnc(Cl)s3)c3cccc[n+]23)n1` [Example I-1-052] the same measures were 1.94 and 100%.
On to `O=C(CNCc1ccccc1)c1c([O-])n(Cc2cnc(Cl)s2)c2cccc[n+]12` [Example I-1-053], for which the log p in series [1] (setting [2]) is 1. For the same compound, in the series with Myzus persicae, the efficacy is on record as 90%.
For `O=C(COCc1ccc(F)cc1)c1c([O-])n(Cc2cnc(Cl)s2)c2cccc[n+]12` [Example I-1-055] the same measures were 2.41 and 100%.
For `O=C(Cn1ccc(C(F)(F)F)n1)c1c([O-])n(Cc2cnc(Cl)s2)c2cccc[n+]12` [Example I-1-057] the same measures were 2.44 and 90%.
In the case of `CNC(=O)c1c([O-])n(Cc2cnc(Cl)cn2)c2cccc[n+]12` [Example I-1-280], the “log p a)” value in series [1] worked out at 1.15.
Consider `COC(=O)c1c([O-])n(Cc2cnc(Cl)cn2)c2c(C)ccc[n+]12` [Example I-1-281], for which, in series [1], the “log p a)” value turned out to be 1.47.
On the same count and under the same terms, then `O=C(Nc1cc(Cl)cc(Cl)c1)c1c([O-])n(Cc2ccc(Cl)nc2)c2cccc[n+]12` [Example I-1-295], with 4.1; and `O=C(Nc1cccc(OC(F)(F)F)c1)c1c([O-])n(Cc2ccc(Cl)nc2)c2cccc[n+]12` [Example I-1-298], with 3.55.
`Cc1cccc(NC(=O)c2c([O-])n(Cc3ccc(Cl)nc3)c3cccc[n+]23)c1` [Example I-1-300]: the “log p a)” value in series [1] came out at 1.41.
On to `O=C(Nc1nccs1)c1c([O-])n(Cc2cnc(Cl)s2)c2cccc[n+]12` [Example I-1-318], for which the “log p a)” value in series [1] is reported as 2.05.
`O=C(Nc1ncccc1[N+](=O)[O-])c1c([O-])n(Cc2cnc(Cl)s2)c2cccc[n+]12` [Example I-1-320]: the “log p a)” value in series [1] is given as 1.91.
Regarding `Cc1cccc(F)c1NC(=O)c1c([O-])n(Cc2cnc(Cl)s2)c2cccc[n+]12` [Example I-1-322], the “log p a)” value in series [1] is reported as 3.1.
On to `O=C(Nc1nccs1)c1c([O-])n(Cc2ccc(Cl)nc2)c2cccc[n+]12` [Example I-1-324], for which, in series [1], the “log p a)” value is reported as 1.93.
Consider `Cc1cnc(NC(=O)c2c([O-])n(Cc3ccc(Cl)nc3)c3cccc[n+]23)s1` [Example I-1-327], for which the “log p a)” value in series [1] was 2.17.
Consider `COc1cc(NC(=O)c2c([O-])n(Cc3ccc(Cl)nc3)c3cccc[n+]23)ccn1` [Example I-1-329], for which the “log p a)” value in series [1] was found to be 1.41.
With `Cn1nccc1NC(=O)c1c([O-])n(Cc2cnc(Cl)s2)c2cccc[n+]12` [Example I-1-330], the “log p a)” value in series [1] was 1.6.
As for `O=C(Nc1c(Cl)ncnc1Cl)c1c([O-])n(Cc2cnc(Cl)s2)c2cccc[n+]12` [Example I-1-331], the “log p a)” value in series [1] amounted to 2.17.
As to `Cn1ncc(Br)c1NC(=O)c1c([O-])n(Cc2cnc(Cl)s2)c2cccc[n+]12` [Example I-1-332], the “log p a)” value in series [1] is recorded as 1.99.
Still for that read-out and setting: next, `O=C(Nc1cnccc1Cl)c1c([O-])n(Cc2cnc(Cl)s2)c2cccc[n+]12` [Example I-1-334]: 1.81; `O=C(Nc1ncccc1Br)c1c([O-])n(Cc2cnc(Cl)s2)c2cccc[n+]12` [Example I-1-335]: 1.58; `O=C(Nc1ncccc1C(F)(F)F)c1c([O-])n(Cc2cnc(Cl)s2)c2cccc[n+]12` [Example I-1-336]: 1.99.
On the same count and under the same terms, next, `Cc1cccnc1NC(=O)c1c([O-])n(Cc2cnc(Cl)s2)c2cccc[n+]12` [Example I-1-337]: 0.91; `O=C(Nc1ncns1)c1c([O-])n(Cc2cnc(Cl)s2)c2cccc[n+]12` [Example I-1-338]: 1.98.
`Clc1ccc(CNc2ncccn2)cn1` [N-[(6-chloropyridin-3-yl)methyl]pyrimidin-2-amine]: in series [1], the chromatographic logP is 1.36.

The values are drawn from patent publication US20180282323A1, “Mesoionic imidazole derivatives as insecticides” (BAYER CROPSCIENCE AKTIENGESELLSCHAFT, priority 2015, published 2018).
